Data from ChEMBL document CHEMBL5344478, “Cytochrome bd oxidase: an emerging anti-tubercular drug target” (RSC Med Chem, 2024).
pIC50: −log10 of the molar value.

System: Mycobacterium tuberculosis variant bovis
Test: Antibacterial activity against Mycobacterium bovis BCG assessed as reduction in bacterial growth
Assay type: functional, organism-based

Row | SMILES | pIC50
1 | CC(C)(C)c1ccc(CCNc2ncnc3ccccc23)cc1 | 6.10
2 | CC(C)(C)c1ccc(CCNc2ncnc3ccsc23)cc1 | 5.24
3 | Fc1ccc2c(NCCc3ccc(OC(F)(F)F)cc3)ncnc2c1 | 6.10
